In series [1] the test system is HepG2. As to the kind of experiment: Antitumor activity against human HepG2 cells xenografted in Balb/c nude mouse assessed as tumor growth inhibition at 1 mg/kg/2 days, ip for 20 days measured on day 21. Format: functional, organism-based.
Series [2] concerns HepG2. Briefly: Cytotoxicity against human HepG2 cells assessed as reduction in cell viability after 24 hrs by MTT assay. The settings on record: for IC50: HepG2, 24 h. Format: functional, cell-based.
For a further series, the system named is L02. Briefly: Cytotoxicity against human LO2 cells assessed as reduction in cell viability after 24 hrs by MTT assay. Format: cell-based. Particulars: L02, 24 h.
Another series concerns HeLa. Briefly: Cytotoxicity against human HeLa cells assessed as reduction in cell viability after 24 hrs by MTT assay. Format: functional, cell-based.
Another series concerns THP-1. As to the kind of experiment: Cytotoxicity against human THP1 cells assessed as reduction in cell viability after 24 hrs by MTT assay. Format: functional, cell-based. The settings on record: for IC50: THP-1, 24 h. (In general: Tetrazolium dyes change colour on reduction, which living cells bring about.)
For series [3], the system named is HepG2. As to the kind of experiment: Upregulation of Bax protein expression in human HepG2 cells at 50 uM after 3 hrs by western blot analysis. Format: functional, cell-based. In general terms: Immunoblotting shows a protein as a band on a membrane.
Series [4] can be described thus: Drug uptake in human HepG2 cell cytoplasm at 10 mg/ml after 1 to 3 hrs by Hoechst 33342 staining based confocal laser scanning microscopic method. Format: ADME, subcellular.
A further series deals with Mus musculus. As to the kind of experiment: Toxicity in Balb/c nude mouse xenografted with human HepG2 cells assessed as change in body weight at 10 mg/kg/day, ip daily for 20 days measured every 2 days during compound dosing. The settings on record: in vivo. Format: organism-based.
In series [5] the test system is HepG2. Briefly: Induction of apoptosis in human HepG2 cells after 24 hrs by Annexin V-FITC/propidium iodide staining based flow cytometry. Format: functional, cell-based. A general note: A flow cytometer gives signals particle by particle.
Series [6] relates to HepG2. Briefly: Downregulation of Bcl2 protein expression in human HepG2 cells at 50 uM after 3 hrs by western blot analysis. Format: functional, cell-based.
Series [7] deals with HepG2. As to the kind of experiment: Antitumor activity against human HepG2 cells xenografted in Balb/c nude mouse assessed as tumor growth inhibition at 10 mg/kg/day, ip daily for 20 days measured on day 21. Format: functional, organism-based.
The nature of series [8]: Drug uptake in human HepG2 cell nucleus at 10 mg/ml after 1 to 3 hrs by Hoechst 33342 staining based confocal laser scanning microscopic method. Format: ADME, subcellular.
A short description of series [9]: Drug uptake in human HepG2 cell cytoplasm at 10 mg/ml after 4 hrs by Hoechst 33342 staining based confocal laser scanning microscopic method. The settings on record: hepg2, 4 h. Format: ADME, subcellular.
For series [10], the system named is HepG2. Briefly: Cytotoxicity against human HepG2 cells assessed as cell morphology disruption at 10 mg/ml after 4 hrs by Hoechst 33342 staining based confocal laser scanning microscopic method. Format: functional.
The nature of series [11]: Drug uptake in human HepG2 cell nucleus at 10 mg/ml after 4 hrs by Hoechst 33342 staining based confocal laser scanning microscopic method. Format: ADME, subcellular. The settings on record: hepg2, 4 h.
Another series relates to K562. Briefly: Cytotoxicity against human K562 cells assessed as reduction in cell viability after 24 hrs by MTT assay. Format: functional, cell-based. Particulars: for IC50: K562, 24 h.

Activity calls are given as the source filed them. No cut-off for these calls is given here.

Consider `COc1cccc2c1C(=O)c1c(O)c3c(c(O)c1C2=O)C[C@@](O)(C(=O)CO)C[C@@H]3O[C@H]1C[C@H](N)[C@H](O)[C@H](C)O1` [DOXORUBICIN], for which the TGI entry in the series with HepG2 [1] was “Active”. For the same compound, the half-inhibitory concentration (IC50) – broadly, the midpoint of a concentration-inhibition curve – in the series on HepG2 [2] came to 680 nM; in the series on L02 it was 6930 nM; with HeLa, 2230 nM; in the series on THP-1, 670 nM.

For the compound `COc1cc(/C=C2\CN(C)C/C(=C\c3ccccc3F)C2=O)cc(OC)c1OC`, the result in the series on HepG2 [3], with HepG2 [6] and in the series on HepG2 [10] was Active. Moreover, the Drug uptake entry in series [4] was “Active”; in series [8] it was “Not Active”; in [9], “Not Active”; in series [11] it was “Active”. Moreover, the Activity result with Mus musculus was “Non-Toxic”; in the series on HepG2 [5], “Dose-dependent effect”; in the series with HepG2 [2], “Dose-dependent effect”; in the series with K562 it was “Dose-dependent effect”; with HeLa, “Dose-dependent effect”; in the series with THP-1, “Dose-dependent effect”. The TGI entry with HepG2 [7] was “Active”. In addition, the IC50 in the series with HepG2 [2] is 670 nM; with K562 it was 4340 nM; with L02 it was 12000 nM; in the series with HeLa it was 3220 nM; with THP-1 it was 640 nM.

Consider `CN1C/C(=C\c2ccc(C(F)(F)F)cc2)C(=O)/C(=C/c2cccc([N+](=O)[O-])c2)C1`, for which the outcome with HepG2 [3] and with HepG2 [6] was Active. The Activity result in the series with HepG2 [2], in the series with K562, in the series with HeLa and in the series on THP-1 was “Dose-dependent effect” each time. Further, the IC50 in the series on HepG2 [2] is 1040 nM; with K562, 4780 nM; in the series with L02 it was 12400 nM; with HeLa it was 3560 nM; with THP-1, 970 nM.

For the compound `COc1cc(/C=C2\CN(C)C/C(=C\c3cc(OC)c(OC)c(OC)c3)C2=O)cc(OC)c1`, the outcome in the series with HepG2 [3] and in the series with HepG2 [6] was Active. The Activity result in the series on HepG2 [2], with K562, in the series with HeLa and with THP-1 was “Dose-dependent effect” in each case. In addition, the 50% inhibitory concentration (IC50) in the series with HepG2 [2] worked out at 890 nM; with K562 it was 3470 nM; with L02, 14600 nM; with HeLa it was 2300 nM; in the series on THP-1, 720 nM.
